Laboratory results from patent publication US9670201B2, “Methyl- and trifluoromethyl-substituted pyrrolopyridine modulators of RORC2 and methods of use thereof” (Pfizer Inc., priority 2014, dated 2017).

molecular target: RORC2 ligand binding domain (6-His-RORC2 LBD) (Homo sapiens (Human), UniProt P51449); test: Co-activator recruitment by TR-FRET; format: biochemical; conditions: 6-His-RORC2 LBD / SRC1-2 coactivator peptide, Table 1
Sequence (P51449 269-508): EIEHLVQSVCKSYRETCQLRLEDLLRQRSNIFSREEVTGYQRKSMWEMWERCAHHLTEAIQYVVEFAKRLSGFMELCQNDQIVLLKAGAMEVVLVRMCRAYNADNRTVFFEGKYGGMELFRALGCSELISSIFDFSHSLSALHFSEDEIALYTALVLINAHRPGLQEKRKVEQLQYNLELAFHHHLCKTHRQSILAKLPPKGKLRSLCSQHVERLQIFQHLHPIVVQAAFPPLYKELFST

Structure (SMILES)	IC50 [nM]
Cn1cc(C2CCN(C(=O)[C@H]3C[C@H]4CCCC[C@H]4C3)CC2)c2c(C(F)(F)F)c(NC(=O)c3cccc(C#N)c3)cnc21 [Example 16, 3-cyano-N-(1-methyl-3-(1-((2r,3aR,7aS)-octahydro-1H-indene-2-carbonyl)piperidin-4-yl)-4-(trifluoromethyl)-1H-pyrrolo[2,3-b]pyridin-5-yl)benzamide]	10.2
Cn1cc(C2CCN(C(=O)CC3CCC3)CC2)c2c(C(F)(F)F)c(NC(=O)c3cccc(C#N)c3)cnc21 [Example 18, 3-cyano-N-(3-(1-(2-cyclobutylacetyl)piperidin-4-yl)-1-methyl-4-(trifluoromethyl)-1H-pyrrolo[2,3-b]pyridin-5-yl)benzamide]	3.8
Cn1cc(C2CCN(C(=O)CC3CC3)CC2)c2c(C(F)(F)F)c(NC(=O)c3cccc(C#N)c3)cnc21 [Example 24, 3-cyano-N-(3-(1-(2-cyclopropylacetyl)piperidin-4-yl)-1-methyl-4-(trifluoromethyl)-1H-pyrrolo[2,3-b]pyridin-5-yl)benzamide]	5.8
Cc1c(NC(=O)c2cccc(C#N)c2)cnc2c1c(C1CCN(C(=O)[C@H](C)C(C)C)CC1)cn2C [Example 37, (R)-3-cyano-N-(3-(1-(2,3-dimethylbutanoyl)piperidin-4-yl)-1,4-dimethyl-1H-pyrrolo[2,3-b]pyridin-5-yl)benzamide]	11.6
COc1cc(Cl)cc(C(=O)Nc2cnc3c(c(C4CCN(C(=O)[C@H](C)C(C)(C)C)CC4)cn3C)c2C)c1 [Example 42, (R)-3-chloro-N-(1,4-dimethyl-3-(1-(2,3,3-trimethylbutanoyl)piperidin-4-yl)-1H-pyrrolo[2,3-b]pyridin-5-yl)-5-methoxybenzamide]	7.6
Cc1c(NC(=O)c2cccc(C#N)c2)cnc2c1c(C1CCN(C(=O)[C@H](C)C34CC(C3)C4)CC1)cn2C [Example 50, (R)—N-(3-(1-(2-(bicyclo[1.1.1]pentan-1-yl)propanoyl)piperidin-4-yl)-1,4-dimethyl-1H-pyrrolo[2,3-b]pyridin-5-yl)-3-cyanobenzamide]	7.5
Cc1c(NC(=O)c2cccc(C#N)c2)cnc2c1c(C1CCN(C(=O)[C@H](C)C3CCCC3)CC1)cn2C [Example 51, (R)-3-cyano-N-(3-(1-(2-cyclopentylpropanoyl)piperidin-4-yl)-1,4-dimethyl-1H-pyrrolo[2,3-b]pyridin-5-yl)benzamide]	6.9
Cn1cc(C2CCN(C(=O)C3CCCC3)CC2)c2c(C(F)(F)F)c(NC(=O)c3cc(O)cc(C#N)c3)cnc21 [Example 55, 3-cyano-N-(3-(1-(cyclopentanecarbonyl)piperidin-4-yl)-1-methyl-4-(trifluoromethyl)-1H-pyrrolo[2,3-b]pyridin-5-yl)-5-hydroxybenzamide]	10.6

Further lines, results first:

IC50 [nM]	Structure (SMILES)
5.2	Cn1cc(C2CCN(C(=O)CC3CCCCC3)CC2)c2c(C(F)(F)F)c(NC(=O)c3cccc(C#N)c3)cnc21 [Example 20, 3-cyano-N-(3-(1-(2-cyclohexylacetyl)piperidin-4-yl)-1-methyl-4-(trifluoromethyl)-1H-pyrrolo[2,3-b]pyridin-5-yl)benzamide]
5.7	Cc1c(NC(=O)c2cccc(C#N)c2)cnc2c1c(C1CCN(C(=O)c3cccc4c3CCC4)CC1)cn2C [Example 34, 3-cyano-N-(3-(1-(2,3-dihydro-1H-indene-4-carbonyl)piperidin-4-yl)-1,4-dimethyl-1H-pyrrolo[2,3-b]pyridin-5-yl)benzamide]
4.5	Cc1c(NC(=O)c2cc(Cl)ccc2F)cnc2c1c(C1CCN(C(=O)[C@H](C)C(C)(C)C)CC1)cn2C [Example 41, (R)-5-chloro-N-(1,4-dimethyl-3-(1-(2,3,3-trimethylbutanoyl)piperidin-4-yl)-1H-pyrrolo[2,3-b]pyridin-5-yl)-2-fluorobenzamide]
4.7	C[C@@H](C(=O)N1CCC(c2cn(C)c3ncc(NC(=O)c4cc(O)cc(C#N)c4)c(C(F)(F)F)c23)CC1)C(C)(C)C [Example 54, (R)-3-cyano-5-hydroxy-N-(1-methyl-4-(trifluoromethyl)-3-(1-(2,3,3-trimethylbutanoyl)piperidin-4-yl)-1H-pyrrolo[2,3-b]pyridin-5-yl)benzamide]
